Test results from US20220112194A1, “COMPOUNDS TARGETING PRMT5” (ALIGOS THERAPEUTICS, INC., priority 2020, published 2022).

Assays:
PRMT5/MEP50 [1] = molecular target: T1, PRMT5/MEP50 (Homo sapiens, UniProt O14744); experiment: PRMT5/MEP50 enzyme inhibition assay, Assay 1 (radioisotope filter binding, 3H-SAM, histone H2A); format: biochemical; conditions: 1 μM 3H-SAM, 5 μM histone H2A, 60 min at 30° C.
Method: Compounds were tested for inhibition of methyltransferase activity in a radioisotope filter binding assay, similar to previously described in A selective inhibitor of PRMT5 with in vivo and in vitro potency in MCL models. Chan-Penebre et al., Nat Chem Biol. (2015) 11(6):432-7. In the standard PRMT5/MEP50 enzyme inhibition assay, compounds were tested in a 10-dose IC50 mode with 3- or 5-fold serial dilution, in singlet, starting at 1, 10, or 100 μM. Control compound, SAH (S-(5′-Adenosyl)-L-homocysteine), was tested in 10-dose IC50 mode with 3-fold serial dilution starting at 100 μM. Reactions were carried out at 1 μM 3H-SAM (PerkinElmer) and 5 μM histone H2A as substrates for methyl transfer. Following a 60 min incubation at 30° C., the reaction was stopped with 20% TCA. Each reaction was spotted on a filter plate (MultiScreen FB Filter plate, Millipore) and washed 5 times in PBS, after which scintillation fluid was added and signal was detected in a scintillation counter. Percent enzyme activity was calculated based on no inhibitor DMSO control as 100% activity. EC50 values were determined in GraphPad Prism 8 using the [inhibitor] vs. response—Variable slope (four parameters) function.
(§1) Compounds of Formula (I) show activity in this assay. A value of ‘A’ in the table below indicates an IC50 of <1 nM, a value of ‘B’ indicates an IC50≥1 nM to ≤100 nM, and a value of ‘C’ indicates an IC50 value of >100 nM.

PRMT5/MEP50 [2] = molecular target: T1, PRMT5/MEP50; experiment: PRMT5/MEP50 enzyme inhibition assay, Assay 2 (384-well, MALDI mass spectrometry, SAM, histone H4 1-21 peptide); format: biochemical; conditions: 1 μM SAM, 0.1 μM histone H4 1-21 peptide, 18-hour incubation at rt
Method: Compounds were tested for inhibition of methyltransferase activity in 384-well plate assay format using mass spectrometry technology. In this enzyme inhibition assay, compounds were tested in a 11-dose IC50 mode with 3-serial dilution, in duplicate, starting at 1, 10, or 100 μM. Reactions were carried out at 1 μM SAM and 0.1 μM histone H4 1-21 peptide as substrates for methyl transfer. Following an 18-hour incubation at rt, the reaction was stopped with 0.5% formic acid. Products of the reaction were captured while unreacted substrates were washed away, prior to MALDI mass spectrometry detection and analysis. Percent enzyme activity was calculated based on no inhibitor DMSO control as 100% activity. EC50 values were determined in GraphPad Prism 8 using the [inhibitor] vs. response—Variable slope (four parameters) function.
as §1

HepG2 hepatoma cells = experiment: Cell proliferation assay HepG2 (CellTiter-Glo, 7 days); format: cell-based; conditions: Homo sapiens, 168 h; HepG2, 7 days, cell viability CellTiter-Glo 2.0
Method: (§2) HepG2 hepatoma cells (ATCC, HB-8065) were maintained in DMEM with high glucose (Lonza, 12-914F) supplemented with 10% fetal bovine serum (FBS; Biowest, S181B-500) and 2 mM L-glutamine (Biowest, X0551-100) at 37° C. and 5% CO2. A549 lung carcinoma cells (ATCC, CCL-185) were maintained in F-12K medium (ThermoFisher 21127030) supplemented with 10% FBS at 37° C. and 5% CO2. Exponentially growing HepG2 or A549 were plated in white, clear-bottom 96-well plates (Corning, 3903) at a cell density of 2000 (HepG2) or 350 (A549) cells per well in 199 μL of HepG2 medium. Next, 1 μL of a 5-fold 9-point dilution series of test compound in DMSO was added to the different wells. Cells were incubated at 37° C. 5% CO2 for 7 days. Cell viability was assessed on day 7 with the CellTiter-Glo 2.0 Cell Viability assay kit (Promega, G9243) to quantify the intracellular amounts of ATP: first, 100 μL of cell culture medium was removed from each well, next 100 μL of CellTiter-Glo® 2.0 Reagent was added and plates were shaken for 2 minutes on an orbital shaker. After 10 minutes stabilization at room temperature, read-out was performed on a ThermoFisher VarioSkan Lux plate reader. Counts were normalized to DMSO control (0% inhibition) and the cytotoxic control (100% inhibition) and EC50 values were determined in GraphPad Prism 8 using the [Agonist] vs. response—Variable slope (four parameters) function.
(§3) As shown by the data of Table 2, compounds of Formula (I) have activity in this assay. A value of ‘A’ in the table below indicates an EC50 of <20 nM, a value of ‘B’ indicates an EC50≥20 nM to <100 nM, a value of ‘C’ indicates an EC50 value of EC50≥100 nM to <1000 nM and a value of ‘D’ indicates an EC50≥1000 nM

[3] = tested on: A549 lung carcinoma cells; experiment: Cell proliferation assay A549 (CellTiter-Glo, 7 days); format: cell-based; conditions: Homo sapiens, A549, 168 h, A549, 7 days, cell viability CellTiter-Glo 2.0
Method: as §2, §3

T1 sequence (O14744 whole entry): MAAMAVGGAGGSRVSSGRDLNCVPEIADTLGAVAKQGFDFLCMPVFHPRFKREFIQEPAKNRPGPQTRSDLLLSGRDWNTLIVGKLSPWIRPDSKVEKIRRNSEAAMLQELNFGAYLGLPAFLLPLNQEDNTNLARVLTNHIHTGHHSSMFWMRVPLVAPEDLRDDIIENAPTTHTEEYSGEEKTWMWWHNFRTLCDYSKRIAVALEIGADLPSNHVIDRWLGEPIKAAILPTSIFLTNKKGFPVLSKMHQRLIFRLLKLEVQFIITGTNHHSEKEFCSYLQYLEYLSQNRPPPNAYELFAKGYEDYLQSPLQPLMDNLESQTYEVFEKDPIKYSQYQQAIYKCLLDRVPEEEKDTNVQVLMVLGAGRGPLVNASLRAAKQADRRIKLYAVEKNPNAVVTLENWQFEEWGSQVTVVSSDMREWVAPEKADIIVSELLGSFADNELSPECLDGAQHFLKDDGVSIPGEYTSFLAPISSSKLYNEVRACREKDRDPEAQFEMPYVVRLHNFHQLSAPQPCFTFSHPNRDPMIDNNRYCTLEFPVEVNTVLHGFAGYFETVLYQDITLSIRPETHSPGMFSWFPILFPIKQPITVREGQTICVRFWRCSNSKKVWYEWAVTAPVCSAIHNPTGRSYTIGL
T1 sequence (Q9BQA1 whole entry partner): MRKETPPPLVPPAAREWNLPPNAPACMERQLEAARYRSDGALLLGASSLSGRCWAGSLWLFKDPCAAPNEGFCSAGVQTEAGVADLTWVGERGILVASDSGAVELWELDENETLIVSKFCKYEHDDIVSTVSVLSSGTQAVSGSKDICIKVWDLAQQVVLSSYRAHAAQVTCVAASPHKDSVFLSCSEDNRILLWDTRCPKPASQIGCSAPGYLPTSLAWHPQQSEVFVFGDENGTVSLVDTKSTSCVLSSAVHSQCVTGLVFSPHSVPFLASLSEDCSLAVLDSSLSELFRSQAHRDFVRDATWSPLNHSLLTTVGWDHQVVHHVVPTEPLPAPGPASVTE

Row | IC50 (PRMT5/MEP50 [1]) [µM] | IC50 (PRMT5/MEP50 [2]) [µM] | EC50 (HepG2 hepatoma cells) [µM] | EC50 [3] [µM] | SMILES
1 |  | < 0.001 | < 0.02 | < 0.02 | C[C@]1(CCc2ccc3cc(C(F)F)c(N)nc3c2)C[C@@H](n2ccc3c(N)ncnc32)[C@H](O)[C@@H]1O [Compound 23]
2 |  |  | < 0.02 | < 0.02 | COC[C@]1(CCc2ccc3cc(Br)c(N)nc3c2)C[C@@H](n2ccc3c(N)ncnc32)[C@H](O)[C@@H]1O [Compound 58]
3 |  | < 0.001 | 0.02 to 0.1 | 0.02 to 0.1 | C[C@]1(CCc2ccc3cc(C#N)c(N)nc3c2)C[C@@H](n2ccc3c(N)ncnc32)[C@H](O)[C@@H]1O [Compound 27]
4 |  | < 0.001 | < 0.02 | < 0.02 | C[C@]1(CCc2ccc3cc(Cl)c(N)nc3c2)C[C@@H](n2ccc3c(N)ncnc32)[C@H](O)[C@@H]1O [Compound 18]
5 |  | < 0.001 | < 0.02 | < 0.02 | C[C@]1(CCc2ccc3cc(Br)c(N)nc3c2)C[C@@H](c2ccc3c(N)ncnn23)[C@H](O)[C@@H]1O [Compound 59]
6 | < 0.001 | < 0.001 |  |  | C[C@]1(CCc2ccc3cc(Br)c(N)nc3c2)C[C@@H](n2ccc3c(N)ncnc32)[C@H](O)[C@@H]1O [Compound 1]
7 |  |  |  | < 0.02 | C#C[C@]1(CCc2ccc3cc(Br)c(N)nc3c2)C[C@@H](n2ccc3c(N)ncnc32)[C@H](O)[C@@H]1O [Compound 63]
8 |  | > 0.1 | 0.02 to 0.1 | 0.02 to 0.1 | CCCCCOC(=O)Nc1ccc2ccc(CC[C@@]3(C)C[C@@H](c4ccc5c(N)ncnn45)[C@H](O)[C@@H]3O)cc2n1 [Compound 55]
9 |  | < 0.001 | < 0.02 | < 0.02 | C[C@]1(CCc2ccc3cc(Br)c(N)nc3c2)C[C@@H](n2ccc3c(N)ncc(F)c32)[C@H](O)[C@@H]1O [Compound 50]
10 |  |  |  | < 0.02 | COC[C@]1(CCc2cc(F)c3cc(Cl)c(N)nc3c2)C[C@@H](c2ccc3c(N)ncnn23)[C@H](O)[C@@H]1O [Compound 64]
11 |  | < 0.001 |  |  | Nc1ccc2ccc(CC[C@@]3(F)C[C@@H](n4ccc5c(N)ncnc54)[C@H](O)[C@@H]3O)cc2n1 [Compound 35, (1S,2S,3R,5R)-5-(4-amino-7H-pyrrolo[2,3-d]pyrimidin-7-yl)-3-(2-(2-aminoquinolin-7-yl)ethyl)-3-fluorocyclopentane-1,2-diol]
12 |  | < 0.001 | < 0.02 | 0.02 to 0.1 | Cn1c(N)nc2cc(CC[C@@]3(C)C[C@@H](n4ccc5c(N)ncnc54)[C@H](O)[C@@H]3O)ccc2c1=O [Compound 29]
13 |  |  | < 0.02 | < 0.02 | C[C@]1(CCc2cc(F)c3cc(Cl)c(N)nc3c2)C[C@@H](c2ccc3c(N)ncnn23)[C@H](O)[C@@H]1O [Compound 57]

Further lines, the compound ahead of its results:

Row | SMILES | IC50 (PRMT5/MEP50 [1]) [µM] | IC50 (PRMT5/MEP50 [2]) [µM] | EC50 (HepG2 hepatoma cells) [µM] | EC50 [3] [µM]
14 | C=C1[C@@H](n2ccc3c(N)ncnc32)[C@H](O)[C@H](O)[C@H]1CCc1ccc2cc(Br)c(N)nc2c1 [Compound 4] | < 0.001 | < 0.001 | < 0.02 | < 0.02
15 | C[C@]1(CCc2cc(F)c3cc(Cl)c(N)nc3c2)C[C@@H](n2ccc3c(N)ncc(F)c32)[C@H](O)[C@@H]1O [Compound 34, (1S,2R,3S,5R)-3-[2-(2-amino-3-chloro-5-fluoro-7-quinolyl)ethyl]-5-(4-amino-7-fluoro-pyrrolo[3,2-c]pyridin-1-yl)-3-methyl-cyclopentane-1,2-diol] |  | < 0.001 |  | 
16 | C[C@]1(CCc2cc(F)c3ccc(N)nc3c2)C[C@@H](n2ccc3c(N)ncc(F)c32)[C@H](O)[C@@H]1O [Compound 42, (1S,2R,3S,5R)-3-(2-(2-amino-5-fluoroquinolin-7-yl)ethyl)-5-(4-amino-7-fluoro-1H-pyrrolo[3,2-c]pyridin-1-yl)-3-methylcyclopentane-1,2-diol] |  | < 0.001 |  | 
17 | C[C@]1(CCc2ccc3ccc(N)nc3n2)C[C@@H](n2ccc3c(N)ncnc32)[C@H](O)[C@@H]1O [Compound 24] |  | < 0.001 | 0.02 to 0.1 | 0.02 to 0.1
18 | Cc1cnc2cc(OC[C@@]34C[C@@H]3[C@@H](n3ccc5c(N)ncnc53)[C@H](O)[C@@H]4O)ccn12 [Compound 16] |  | < 0.001 | ≥ 1 | ≥ 1
19 | C[C@@H]1[C@H](CCc2ccc3ccc(N)nc3c2)[C@@H](O)[C@@H](O)[C@@H]1n1ccc2c(N)ncnc21 [Compound 6] | 0.001 to 0.1 | 0.001 to 0.1 | ≥ 1 | ≥ 1
20 | C=C1[C@@H](n2ccc3c(N)ncnc32)[C@H](O)[C@H](O)[C@H]1CCc1ccc2cc(Br)c(Cl)nc2c1 [Compound 3] | > 0.1 | > 0.1 | 0.1 to 1 | 0.1 to 1
21 | Nc1nc2cc(CC[C@@]34C[C@@H]3[C@@H](n3ccc5c(N)ncnc53)[C@H](O)[C@@H]4O)ccc2cc1Br [Compound 2] | < 0.001 | < 0.001 | < 0.02 | < 0.02
22 | C[C@]1(CCc2cc(F)c3cc(Cl)c(N)nc3c2)C[C@@H](n2ccc3c(N)nc(Cl)nc32)[C@H](O)[C@@H]1O [Compound 53] |  | < 0.001 | < 0.02 | < 0.02
23 | Nc1nc2cc(OC[C@@H]3[C@@H](O)[C@@H](O)[C@]4(n5ccc6c(N)ncnc65)C[C@@H]34)ccc2cc1Br (racemic) [Compound 17, rac-(2S,3R,4R,5S)-4-[(2-amino-3-bromo-7-quinolyl)oxymethyl]-1-(4-aminopyrrolo[2,3-d]pyrimidin-7-yl)bicyclo[3.1.0]hexane-2,3-diol] |  |  | ≥ 1 | ≥ 1
24 | C[C@]1(CCc2ccc3cc(Cl)c(N)nc3c2)C[C@@H](n2ccc3c(N)ncnc32)[C@H](O)[C@]1(C)O [Compound 28] |  | < 0.001 | 0.02 to 0.1 | 0.1 to 1
25 | CC(C)C(=O)O[C@H]1[C@H](n2ccc3c(N)ncnc32)C[C@](C)(CCc2ccc3nc(N)ccc3c2)[C@H]1OC(=O)C(C)C [Compound 26-A] |  | > 0.1 | ≥ 1 | ≥ 1
26 | C=C[C@]1(CCc2ccc3cc(Br)c(N)nc3c2)C[C@@H](n2ccc3c(N)ncnc32)[C@H](O)[C@@H]1O [Compound 62] |  |  |  | < 0.02
27 | C[C@H]1[C@H](CCc2ccc3ccc(N)nc3c2)[C@@H](O)[C@@H](O)[C@@H]1n1ccc2c(N)ncnc21 [Compound 5] | < 0.001 | < 0.001 | 0.1 to 1 | 0.1 to 1
